System: HUVEC/MSC spheroids viability
Test: Human HUVEC/MSC cell line growth inhibition [KRAS2];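 on viability, T/C: percent of DMSO vehicle control luminescence so 100% = untreated viability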
Conditions: for IC50: curve of first compound; for viability, T/C: stronger effect = lower value
Outline: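 Stroma-only multicellular spheroids, formed from HUVEC and human MSCs at passages </=5, received RAS-pathway inhibitors with or without a second targeted drug. Dosing followed half-log dilutions from clinically achievable levels.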

`COc1cc(Nc2ncc3c(n2)-c2ccc(Cl)cc2C(c2c(F)cccc2OC)=NC3)ccc1C(=O)O` + C=CC(=O)N1CCN(c2nc(=O)n(-c3c(C)ccnc3C(C)C)c3nc(-c4c(O)cccc4F)c(F)cc23)C(C)C1 was tested, and the IC50 (second compound 0.0316 µM) was > 10 µM, the IC50 (second compound 0.1 µM) was > 10 µM and the IC50 (second compound 0.316 µM) was > 10 µM. For the same compound, the IC50 (second compound 1 µM) was > 10 µM, the IC50 (second compound 3.16 µM) was > 10 µM and the IC50 (second compound 10 µM) was > 10 µM. For the same compound, the viability, T/C (second compound 0.0316 µM, first compound 0.0316 µM) was 94.8%, the viability, T/C (second compound 0.0316 µM, first compound 0.1 µM) was 125% and the viability, T/C (second compound 0.0316 µM, first compound 0.316 µM) was 99%. The viability, T/C (second compound 0.0316 µM, first compound 1 µM) was 109%, the viability, T/C (second compound 0.0316 µM, first compound 3.16 µM) was 106% and the viability, T/C (second compound 0.0316 µM, first compound 10 µM) was 71.6%. For the same compound, the viability, T/C (second compound 0.1 µM, first compound 0.0316 µM) was 103%, the viability, T/C (second compound 0.1 µM, first compound 0.1 µM) was 109% and the viability, T/C (second compound 0.1 µM, first compound 0.316 µM) was 108%. It also gave a viability, T/C (second compound 0.1 µM, first compound 1 µM) of 111%, a viability, T/C (second compound 0.1 µM, first compound 3.16 µM) of 106% and a viability, T/C (second compound 0.1 µM, first compound 10 µM) of 56.3%. It also gave a viability, T/C (second compound 0.316 µM, first compound 0.0316 µM) of 111%, a viability, T/C (second compound 0.316 µM, first compound 0.1 µM) of 114% and a viability, T/C (second compound 0.316 µM, first compound 0.316 µM) of 93.8%. For the same compound, the viability, T/C (second compound 0.316 µM, first compound 1 µM) was 116%, the viability, T/C (second compound 0.316 µM, first compound 3.16 µM) was 106% and the viability, T/C (second compound 0.316 µM, first compound 10 µM) was 69.3%. It also gave a viability, T/C (second compound 1 µM, first compound 0.0316 µM) of 122%, a viability, T/C (second compound 1 µM, first compound 0.1 µM) of 127% and a viability, T/C (second compound 1 µM, first compound 0.316 µM) of 115%. For the same compound, the viability, T/C (second compound 1 µM, first compound 1 µM) was 127%, the viability, T/C (second compound 1 µM, first compound 3.16 µM) was 117% and the viability, T/C (second compound 1 µM, first compound 10 µM) was 72.9%. For the same compound, the viability, T/C (second compound 3.16 µM, first compound 0.0316 µM) was 110%, the viability, T/C (second compound 3.16 µM, first compound 0.1 µM) was 123% and the viability, T/C (second compound 3.16 µM, first compound 0.316 µM) was 110%. For the same compound, the viability, T/C (second compound 3.16 µM, first compound 1 µM) was 96.3%, the viability, T/C (second compound 3.16 µM, first compound 3.16 µM) was 109% and the viability, T/C (second compound 3.16 µM, first compound 10 µM) was 83.3%. The viability, T/C (second compound 10 µM, first compound 0.0316 µM) was 136%, the viability, T/C (second compound 10 µM, first compound 0.1 µM) was 129% and the viability, T/C (second compound 10 µM, first compound 0.316 µM) was 154%. It also gave a viability, T/C (second compound 10 µM, first compound 1 µM) of 120%, a viability, T/C (second compound 10 µM, first compound 3.16 µM) of 101% and a viability, T/C (second compound 10 µM, first compound 10 µM) of 66.8%.

Source: PubChem BioAssay AID2060912 (Molecular Pharmacology Branch, DTP, NCI, 2025)
